Reference: patent EP0358957A1, “Fused tetrahydropyridineacetic acid derivatives, process for their preparation, and use of such compounds for the cardioprotection” (BOEHRINGER INGELHEIM KG, priority 1988, dated 1990)

Each molecule was assayed on isolierten Rattenherzen (assay: Isolated rat heart, method II: coronary flow throttled by 75 %, prevention of the fall in contraction amplitude). Conditions: Method II: coronary flow reduced by 75 %; substance added to perfusion medium during flow reduction; concentration needed to prevent the fall in contraction amplitude; read-out: Benötige Konzentrationen.
Design: species or system Ratten
From the text: Wird ein, längere Zeit unter ischämischen Bedingungen gehaltenes, isoliertes Herz wieder normal perfundiert, so tritt keine sofortige Normalisierung der Herzfunktion ein. Es findet sich vielmehr eine vorübergehende Periode, die durch Kontraktur und Arrhytmien gekennzeichnet ist. Diese Arrhythmiephase ist durch Veränderungen von Funktion und Struktur der Myocardzelle mit intrazellulärer Calciumüberladung bedingt (Hess u. Manson, J. Mol. Cell. Cardiol. 16, 969, 1984). Cardioprotektiv wirksame Verbindungen wie Verapamil und Diltiazem verringern die Calciumüberladung und verbessern das Kontraktionsverhalten bei Reperfusion (Watts et al, Am. J. Physiol. 238, H 909, 1980; Meno et al, Am. J. Physiol. 247, H 380, 1984), Die cardioprotektive Wirkung wird an isolierten Rattenherzen unter Ischämie und anschließender Reperfusion untersucht.
Wird der Coronarfluß isolierter Herzen um 75 % gedrosselt, so reagiert das Herz zunächst mit einer Abnahme der Kontraktionsamplitude, ein Herzstillstand tritt erst innerhalb einer Stunde ein. Cardioprotektive Substanzen, während der Periode der Flußreduzierung dem Perfusionsmedium zugesetzt, verhindern den Abfall der Kontraktionsamplitude.

Row | SMILES | minimal effective concentration [µg/mL]
1 | CCCCNC(=O)C(CCc1ccccc1)C1NCCc2cc(OC)c(OC)cc21 (stereo not drawn) [E] | 1
2 | C=CCN(C1=NCCN1)c1c(Cl)cccc1Cl [Alinidin, reference compound] | 8.3
3 | COc1cc2c(cc1OC)C(C(CCc1ccccc1)C(=O)NCCc1ccncc1)NCC2 (stereo not drawn) [D] | 3
